Experimental data as given in ChEMBL document CHEMBL4382226, “Design, synthesis and evaluation of hybrid of tetrahydrocarbazole with 2,4-diaminopyrimidine scaffold as antibacterial agents” (Eur J Med Chem, 2019).
In brackets after ≈: the same amount, converted by molar mass.

What was measured:
[1] = tested on: Staphylococcus aureus; experiment: Antibacterial activity against Staphylococcus aureus Newman measured after 16 hrs; type: functional
[2] = tested on: Escherichia coli; experiment: Antibacterial activity against Escherichia coli AB1157 measured after 16 hrs; type: functional; details: AB1157, 16 h
[3] = tested on: Staphylococcus aureus; experiment: Antibacterial activity against aminoglycosides/tetracycline-resistant Staphylococcus aureus NRS-1 measured after 16 hrs; type: functional; details: NRS-1, 16 h
[4] = tested on: Staphylococcus aureus; experiment: Antibacterial activity against erythromycin-resistant Staphylococcus aureus NRS-70 measured after 16 hrs; type: functional; details: NRS-70, 16 h
[5] = tested on: Staphylococcus aureus; experiment: Antibacterial activity against oxacillin/tetracycline-resistant Staphylococcus aureus NRS-100 measured after 16 hrs; type: functional; details: NRS-100, 16 h
[6] = tested on: Staphylococcus aureus; experiment: Antibacterial activity against gentamicin-resistant Staphylococcus aureus NRS-108 measured after 16 hrs; type: functional; details: NRS-108, 16 h
[7] = tested on: Staphylococcus aureus; experiment: Antibacterial activity against linezolid-resistant Staphylococcus aureus NRS-271 measured after 16 hrs; type: functional; details: NRS-271, 16 h
[8] = Cmax in Sprague-Dawley rat at 10 mg/kg, po administered as single dose via gavage; type: ADME, organism-based; design: dose 10 mg/kg, route oral; details: in vivo
[9] = Tmax in Sprague-Dawley rat at 10 mg/kg, po administered as single dose via gavage; type: ADME, organism-based; details: in vivo
[10] = Half life in Sprague-Dawley rat at 10 mg/kg, po administered as single dose via gavage; type: ADME, organism-based; details: in vivo
[11] = AUC (0 to t) in Sprague-Dawley rat at 10 mg/kg, po administered as single dose via gavage; type: ADME, organism-based; details: in vivo
[12] = AUC (0 to infinity) in Sprague-Dawley rat at 10 mg/kg, po administered as single dose via gavage; type: ADME, organism-based; design: dose 10 mg/kg, route oral, time infinity; details: in vivo
[13] = Apparent volume of distribution in Sprague-Dawley rat at 10 mg/kg, po administered as single dose via gavage; type: ADME, organism-based; details: in vivo
[14] = Clearance in Sprague-Dawley rat at 10 mg/kg, po administered as single dose via gavage; type: ADME, organism-based; details: in vivo
[15] = Mean residence time in Sprague-Dawley rat at 10 mg/kg, po administered as single dose via gavage; type: ADME, organism-based; details: in vivo

| Structure (SMILES) | MIC [1] [µg/mL] | MIC [2] [µg/mL] | MIC [3] [µg/mL] | MIC [4] [µg/mL] | MIC [5] [µg/mL] | MIC [6] [µg/mL] | MIC [7] [µg/mL] | further results |
| --- | --- | --- | --- | --- | --- | --- | --- | --- |
| CC(C)CNc1nccc(NCCCNC2CCCc3c2[nH]c2ccc(F)cc32)n1 (stereo not drawn) | 12.5 to 25 (≈ 30.4 to 60.9 µM) | 12.5 to 25 (≈ 30.4 to 60.9 µM) |  |  |  |  |  |  |
| CC(C)CNc1nccc(NCCCNC2CCCc3c2[nH]c2ccc(C(F)(F)F)cc32)n1 (stereo not drawn) | 1.56 to 3.13 (≈ 3.39 to 6.8 µM) | 1.56 to 3.13 (≈ 3.39 to 6.8 µM) | 1.56 to 3.13 (≈ 3.39 to 6.8 µM) | 1.56 to 3.13 (≈ 3.39 to 6.8 µM) | 1.56 to 3.13 (≈ 3.39 to 6.8 µM) | 1.56 to 3.13 (≈ 3.39 to 6.8 µM) | 1.56 to 3.13 (≈ 3.39 to 6.8 µM) |  |
| CC(C)CNc1nccc(NCCCNC2CCCc3c2[nH]c2ccc(C(=O)O)cc32)n1 (stereo not drawn) | > 50 | > 50 |  |  |  |  |  |  |
| CC(C)CNc1nccc(NCCCNC2CCCc3c2[nH]c2ccc(OC(F)(F)F)cc32)n1 (stereo not drawn) | 1.56 to 3.13 (≈ 3.27 to 6.57 µM) | 1.56 to 3.13 (≈ 3.27 to 6.57 µM) | 1.56 to 3.13 (≈ 3.27 to 6.57 µM) | 1.56 to 3.13 (≈ 3.27 to 6.57 µM) | 1.56 to 3.13 (≈ 3.27 to 6.57 µM) | 1.56 to 3.13 (≈ 3.27 to 6.57 µM) | 1.56 to 3.13 (≈ 3.27 to 6.57 µM) |  |
| CN[C@H](CC(C)C)C(=O)N[C@H]1C(=O)N[C@@H](CC(N)=O)C(=O)N[C@H]2C(=O)N[C@H]3C(=O)N[C@H](C(=O)N[C@H](C(=O)O)c4cc(O)cc(O)c4-c4cc3ccc4O)[C@H](O)c3ccc(c(Cl)c3)Oc3cc2cc(c3O[C@@H]2O[C@H](CO)[C@@H](O)[C@H](O)[C@H]2O[C@H]2C[C@](C)(N)[C@H](O)[C@H](C)O2)Oc2ccc(cc2Cl)[C@H]1O [VANCOMYCIN] |  | 6.25 to 12.5 (≈ 4.31 to 8.63 µM) |  |  |  |  |  |  |
| CN(C)[C@@H]1C(O)=C(C(N)=O)C(=O)[C@@]2(O)C(O)=C3C(=O)c4c(O)cccc4[C@@](C)(O)[C@H]3C[C@@H]12 [TETRACYCLINE] |  |  | > 12.5 | < 1.56 | < 1.56 | < 1.56 | < 1.56 |  |
| Cc1ccc2[nH]c3c(c2c1)CCCC3NCCCCc1ccccc1 (stereo not drawn) | 5 to 6.6 (≈ 15 to 19.9 µM) |  | 2.9 to 4.2 (≈ 8.72 to 12.6 µM) | 2.9 to 4.2 (≈ 8.72 to 12.6 µM) | 2.9 to 4.2 (≈ 8.72 to 12.6 µM) | 4.2 to 5.8 (≈ 12.6 to 17.4 µM) | 4.2 to 5.8 (≈ 12.6 to 17.4 µM) |  |
| CC(C)CNc1nccc(NCCCNC2CCCc3c2[nH]c2ccc(Br)cc32)n1 (stereo not drawn) | 0.39 to 0.78 (≈ 0.827 to 1.65 µM) | 0.39 to 0.78 (≈ 0.827 to 1.65 µM) | 0.39 to 0.78 (≈ 0.827 to 1.65 µM) | 0.78 to 1.56 (≈ 1.65 to 3.31 µM) | 0.78 to 1.56 (≈ 1.65 to 3.31 µM) | 0.78 to 1.56 (≈ 1.65 to 3.31 µM) | 0.78 to 1.56 (≈ 1.65 to 3.31 µM) | Cmax [8]: 86.3 ng/mL; Tmax [9]: 3.6 h; half-life [10]: 10.8 h; AUC(0-t) [11]: 1200 ng·h/mL; AUC(0-inf) [12]: 1560 ng·h/mL; Vd/F [13]: 103 L/kg; CL/F [14]: 110 mL/min/kg; MRT [15]: 16.2 h |
| COc1ccc2[nH]c3c(c2c1)CCCC3NCCCNc1ccnc(NCC(C)C)n1 (stereo not drawn) | 25 to 50 (≈ 59.2 to 118 µM) | > 50 |  |  |  |  |  |  |
| NC[C@H]1O[C@H](O[C@H]2[C@H](O)[C@@H](O[C@H]3O[C@H](CO)[C@@H](O)[C@H](N)[C@H]3O)[C@H](N)C[C@@H]2N)[C@H](O)[C@@H](O)[C@@H]1O [KANAMYCIN] |  | > 50 | 50 to 75 (≈ 103 to 155 µM) | 50 to 75 (≈ 103 to 155 µM) |  | 50 to 75 (≈ 103 to 155 µM) |  |  |
| CC(C)CNc1nccc(NCCCNC2CCCc3c2[nH]c2ccc(Cl)cc32)n1 (stereo not drawn) | 1.56 to 3.13 (≈ 3.65 to 7.33 µM) | 1.56 to 3.13 (≈ 3.65 to 7.33 µM) | 1.56 to 3.13 (≈ 3.65 to 7.33 µM) | 3.13 to 6.25 (≈ 7.33 to 14.6 µM) | 3.13 to 6.25 (≈ 7.33 to 14.6 µM) | 1.56 to 3.13 (≈ 3.65 to 7.33 µM) | 1.56 to 3.13 (≈ 3.65 to 7.33 µM) |  |
| CC(C)CNc1nccc(NCCCCNC2CCCc3c2[nH]c2ccc(OC(F)(F)F)cc32)n1 (stereo not drawn) | 1.56 to 3.13 (≈ 3.18 to 6.38 µM) | 3.13 to 6.25 (≈ 6.38 to 12.7 µM) |  |  |  |  |  |  |
| CC(C)CNc1nccc(NCCCNC2CCCc3c2[nH]c2c(Br)cccc32)n1 (stereo not drawn) | 3.13 to 6.25 (≈ 6.64 to 13.3 µM) | 6.25 to 12.5 (≈ 13.3 to 26.5 µM) | 3.13 to 6.25 (≈ 6.64 to 13.3 µM) | 6.25 to 12.5 (≈ 13.3 to 26.5 µM) | 6.25 to 12.5 (≈ 13.3 to 26.5 µM) | 6.25 to 12.5 (≈ 13.3 to 26.5 µM) | 6.25 to 12.5 (≈ 13.3 to 26.5 µM) |  |

Now from value to compound, other results behind:

| MIC [1] [µg/mL] | MIC [2] [µg/mL] | Structure (SMILES) | MIC [3] [µg/mL] | MIC [4] [µg/mL] | MIC [5] [µg/mL] | MIC [6] [µg/mL] | MIC [7] [µg/mL] | further results |
| --- | --- | --- | --- | --- | --- | --- | --- | --- |
| 4 to 8 (≈ 12.6 to 25.1 µM) |  | Cc1ccc2[nH]c3c(c2c1)CCCC3NCCCc1ccccc1 (stereo not drawn) |  |  |  |  |  |  |
| 12.5 to 25 (≈ 29.6 to 59.2 µM) | 12.5 to 25 (≈ 29.6 to 59.2 µM) | COc1cccc2c3c([nH]c12)C(NCCCNc1ccnc(NCC(C)C)n1)CCC3 (stereo not drawn) |  |  |  |  |  |  |
| 14.5 to 20.9 (≈ 49.9 to 72 µM) |  | Cc1ccc2[nH]c3c(c2c1)CCCC3NCc1ccccc1 (stereo not drawn) |  |  |  |  |  |  |
| 0.78 to 1.56 (≈ 1.86 to 3.72 µM) |  | CC(C)CNc1nccc(NC2CCCc3c2[nH]c2ccc(OC(F)(F)F)cc32)n1 (stereo not drawn) |  |  |  |  |  |  |
| 0.78 to 1.56 (≈ 1.61 to 3.21 µM) | 1.56 to 3.13 (≈ 3.21 to 6.45 µM) | CC(C)CNc1nccc(NCCCCNC2CCCc3c2[nH]c2ccc(Br)cc32)n1 (stereo not drawn) |  |  |  |  |  |  |
| 12.5 to 25 (≈ 31.8 to 63.7 µM) | 12.5 to 25 (≈ 31.8 to 63.7 µM) | CC(C)CNc1nccc(NCCCNC2CCCc3c2[nH]c2ccccc32)n1 (stereo not drawn) |  |  |  |  |  |  |
| 15 to 30.2 (≈ 49.3 to 99.2 µM) |  | Cc1ccc2[nH]c3c(c2c1)CCCC3NCCc1ccccc1 (stereo not drawn) |  |  |  |  |  |  |
| 25 to 50 (≈ 55.5 to 111 µM) | > 50 | COC(=O)c1ccc2[nH]c3c(c2c1)CCCC3NCCCNc1ccnc(NCC(C)C)n1 (stereo not drawn) |  |  |  |  |  |  |
| 1.56 to 3.13 (≈ 3.41 to 6.84 µM) | 1.56 to 3.13 (≈ 3.41 to 6.84 µM) | CC(C)CNc1nccc(NCCNC2CCCc3c2[nH]c2ccc(Br)cc32)n1 (stereo not drawn) |  |  |  |  |  |  |
| 3.13 to 6.25 (≈ 6.77 to 13.5 µM) | 3.13 to 6.25 (≈ 6.77 to 13.5 µM) | CC(C)CNc1nccc(NCCNC2CCCc3c2[nH]c2ccc(OC(F)(F)F)cc32)n1 (stereo not drawn) |  |  |  |  |  |  |
